“And” between values parts separate entries of the source, which are not always exact repeats. Equal entries are not always repeated. Toxic doses and inconclusive results are not listed. The calls were made as follows: active = survival T/C of 150% or more; inactive = T/C below 125% in these data.
System: BDF1 mice, B16 melanoma ip, median survival T/C
Experiment: NCI In Vivo Anticancer Drug Screen. Data for tumor model B16 Melanoma (intraperitoneal) in B6D2F1 (BDF1) mice
Conditions: endpoint: median survival time, higher = longer survival
Method in brief: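 Survival or tumor size is measured after treatment of tumor-bearing mice and normalised to the vehicle-treated control group.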

[1] = dose: 100.0 mg/kg/injection, schedule: Q01DX009 (ip), vehicle: Klucel (hydroxypropylcellulose) (HPC)
[2] = dose: 200.0 mg/kg/injection, schedule: Q01DX009 (ip), vehicle: Klucel (hydroxypropylcellulose) (HPC)
[3] = dose: 400.0 mg/kg/injection, schedule: Q01DX009 (ip), vehicle: Klucel (hydroxypropylcellulose) (HPC)
[4] = dose: 6.25 mg/kg/injection, schedule: Q01DX009 (ip), vehicle: Klucel (hydroxypropylcellulose) (HPC)
[5] = dose: 12.5 mg/kg/injection, schedule: Q01DX009 (ip), vehicle: Klucel (hydroxypropylcellulose) (HPC)
[6] = dose: 25.0 mg/kg/injection, schedule: Q01DX009 (ip), vehicle: Klucel (hydroxypropylcellulose) (HPC)
[7] = dose: 50.0 mg/kg/injection, schedule: Q01DX009 (ip), vehicle: Klucel (hydroxypropylcellulose) (HPC)
[8] = dose: 25.0 mg/kg/injection, schedule: Q01DX009 (ip), vehicle: saline with Tween-80
[9] = dose: 50.0 mg/kg/injection, schedule: Q01DX009 (ip), vehicle: saline with Tween-80
[10] = dose: 50.0 mg/kg/injection, schedule: Q04DX003 (ip), vehicle: Klucel (hydroxypropylcellulose) (HPC)
[11] = dose: 100.0 mg/kg/injection, schedule: Q04DX003 (ip), vehicle: Klucel (hydroxypropylcellulose) (HPC)
[12] = dose: 200.0 mg/kg/injection, schedule: Q04DX003 (ip), vehicle: Klucel (hydroxypropylcellulose) (HPC)
[13] = dose: 3.12 mg/kg/injection, schedule: Q01DX009 (ip), vehicle: saline
[14] = dose: 6.25 mg/kg/injection, schedule: Q01DX009 (ip), vehicle: saline
[15] = dose: 6.25 mg/kg/injection, schedule: Q01DX009 (ip), vehicle: saline with Tween-80
[16] = dose: 12.5 mg/kg/injection, schedule: Q01DX009 (ip), vehicle: saline with Tween-80
[17] = dose: 100.0 mg/kg/injection, schedule: Q01DX009 (ip), vehicle: saline
[18] = dose: 100.0 mg/kg/injection, schedule: Q04DX003 (ip), vehicle: saline with Tween-80
[19] = dose: 100.0 mg/kg/injection, schedule: Q01DX009 (ip), vehicle: saline with Tween-80
[20] = dose: 200.0 mg/kg/injection, schedule: Q01DX009 (ip), vehicle: saline with Tween-80
[21] = dose: 400.0 mg/kg/injection, schedule: Q01DX009 (ip), vehicle: saline with Tween-80

Measured: T/C

COc1cccc(C(Cc2ccccc2)NCc2ccccc2)c1 (configuration not stated)
inactive: [1] 106 % of control | [2] 100 % of control | [3] 96 % of control

C[C@]12CC[C@H](OC(=O)COc3ccc(N(CCCl)CCCl)cc3)C[C@@H]1CC[C@@H]1[C@@H]2CC[C@]2(C)NC(=O)CC[C@@H]12
inactive: dose: 4.0 mg/kg/injection, schedule: Q01DX009 (ip), vehicle: saline with Tween-80 111 % of control | dose: 32.0 mg/kg/injection, schedule: Q01DX009 (ip), vehicle: saline with Tween-80 109 % of control

CC(C)C(=O)NNCc1ccccc1
inactive: [4] 95 % of control | [5] 97 % of control | [6] 95 % of control | [7] 90 % of control

O=C(CCCl)NC(Cc1ccccc1)c1ccccc1 (configuration not stated)
inactive: [1] 110 % of control | [2] 96 % of control | [3] 96 % of control

CC(C)=CCC/C(C)=C\CCl
inactive: [8] 105 % of control | [9] 101 % of control

Clc1nnc(Cl)c(Cl)c1Cl
inactive: dose: 0.05 mg/kg/injection, schedule: Q01DX009 (ip), vehicle: saline with Tween-80 109 % of control | dose: 0.05 mg/kg/injection, schedule: Q04DX003 (ip), vehicle: saline 102 % of control | dose: 0.1 mg/kg/injection, schedule: Q01DX009 (ip), vehicle: saline with Tween-80 100 % of control | dose: 0.1 mg/kg/injection, schedule: Q04DX003 (ip), vehicle: saline 91 % of control | dose: 0.2 mg/kg/injection, schedule: Q01DX009 (ip), vehicle: saline with Tween-80 100 % of control | dose: 0.2 mg/kg/injection, schedule: Q04DX003 (ip), vehicle: saline 89 % of control

O=C(CCc1ccc(O)cc1)c1c(O)cc(O)cc1O
inactive: dose: 50.0 mg/kg/injection, schedule: Q01DX009 (ip), vehicle: saline + alcohol 110 % of control | dose: 100.0 mg/kg/injection, schedule: Q01DX009 (ip), vehicle: saline + alcohol 102 % of control | dose: 400.0 mg/kg/injection, schedule: Q01DX009 (ip), vehicle: saline + alcohol 107 % of control

COc1ccc(/C(C)=N\NC(=O)c2ccccc2)cc1
inactive: [10] 95 % of control | [11] 102 % of control | [12] 87 % of control

O=C(Nc1cc(C(F)(F)F)ccc1Cl)c1ccccc1
inactive: [1] 94 % of control | [2] 91 % of control | [3] 94 % of control

CC1OC2COC(C)OC2C(C(O)COC(c2ccccc2)(c2ccccc2)c2ccccc2)O1 (configuration not stated)
inactive: dose: 1.56 mg/kg/injection, schedule: Q01DX009 (ip), vehicle: Klucel (hydroxypropylcellulose) (HPC) 89 % of control | dose: 3.12 mg/kg/injection, schedule: Q01DX009 (ip), vehicle: Klucel (hydroxypropylcellulose) (HPC) 89 % of control | [4] 88 % of control | [10] 92 % of control | [11] 97 % of control | [2] 109 % of control

C=C1C(=O)O[C@@H]2[C@H](O)[C@@H](C)[C@@H]3C=CC(=O)[C@@]3(C)[C@H](OC(=O)C=C(C)C)[C@H]12
inactive: dose: 2.5 mg/kg/injection, schedule: Q01DX009 (ip), vehicle: Klucel (hydroxypropylcellulose) (HPC) 104 % of control | [13] 102 % of control | dose: 5.0 mg/kg/injection, schedule: Q01DX009 (ip), vehicle: Klucel (hydroxypropylcellulose) (HPC) 119 % of control | [14] 86 % of control | dose: 10.0 mg/kg/injection, schedule: Q01DX009 (ip), vehicle: Klucel (hydroxypropylcellulose) (HPC) 113 % of control

c1ccc(COc2ccc(Nc3ccccc3)cc2)cc1
inactive: [1] 106 % of control | [2] 109 % of control | [3] 112 % of control

CCOC(=O)/N=[N+](\[O-])c1ccccc1
inactive: dose: 3.12 mg/kg/injection, schedule: Q01DX009 (ip), vehicle: saline with Tween-80 97 % of control | [15] 100 % of control | [16] 105 % of control | [8] 104 % of control

Cl[C](Cl)(Cl)[Hg][c]1ccccc1
inactive: dose: 0.19 mg/kg/injection, schedule: Q01DX009 (ip), vehicle: saline 91 % of control | dose: 0.38 mg/kg/injection, schedule: Q01DX009 (ip), vehicle: saline 92 % of control | dose: 1.5 mg/kg/injection, schedule: Q01DX009 (ip), vehicle: saline 89 % of control

C[N+](C)(C)c1nc(N)nc2c1ncn2C1OC(CO)C(O)C1O (configuration not stated)
inactive: dose: 50.0 mg/kg/injection, schedule: Q01DX009 (ip), vehicle: saline 106 % of control | [17] 103 % of control | dose: 200.0 mg/kg/injection, schedule: Q01DX009 (ip), vehicle: saline 109 % of control

CC/C(=C(\c1ccccc1)c1ccc(OCCN(C)C)cc1)c1ccccc1
inactive: dose: 25.0 mg/kg/injection, schedule: Q01DX009 (ip), vehicle: suspension in saline 97 % of control | dose: 50.0 mg/kg/injection, schedule: Q01DX009 (ip), vehicle: suspension in saline 93 % of control | dose: 100.0 mg/kg/injection, schedule: Q01DX009 (ip), vehicle: suspension in saline 91 % of control | dose: 200.0 mg/kg/injection, schedule: Q01DX009 (ip), vehicle: suspension in saline 86 % of control

COc1cccc(OC)c1C(c1c(OC)cccc1OC)c1c(OC)cccc1OC
inactive: dose: 25.0 mg/kg/injection, schedule: Q04DX003 (ip), vehicle: saline with Tween-80 120 % of control | dose: 50.0 mg/kg/injection, schedule: Q04DX003 (ip), vehicle: saline with Tween-80 108 % of control | [18] 114 % of control

CCCCCC/C=C\C(=O)O
inactive: [15] 94 % of control and 95 % of control | [16] 93 % of control and 104 % of control | [8] 93 % of control and 98 % of control | [9] 88 % of control

N#Cc1ncc(C(Cl)Cl)nc1Cl
inactive: dose: 3.13 mg/kg/injection, schedule: Q01DX009 (ip), vehicle: saline + alcohol 96 % of control | dose: 6.25 mg/kg/injection, schedule: Q01DX009 (ip), vehicle: saline + alcohol 91 % of control | dose: 12.5 mg/kg/injection, schedule: Q01DX009 (ip), vehicle: saline + alcohol 93 % of control | dose: 25.0 mg/kg/injection, schedule: Q01DX009 (ip), vehicle: saline + alcohol 89 % of control | [8] 94 % of control

CC[C@@H]1C[C@@H]2CN3CCc4c([nH]c5ccc(OC)cc45)C(C(=O)OC)(C2)C13
inactive: [7] 102 % of control | [1] 106 % of control | [2] 111 % of control

O=c1oc(-c2cccc([N+](=O)[O-])c2)nc2ccccc12
inactive: [7] 106 % of control | [1] 86 % of control

Nc1ccc2cc(S(=O)(=O)O)cc(O)c2c1N=Nc1ccc(F)cc1
inactive: [17] 87 % of control

O=[N+]([O-])c1ccc2nc3c(nc2c1)-c1cccc2cccc-3c12
inactive: [9] 103 % of control | [19] 100 % of control | [20] 98 % of control

NC1CC1c1ccccc1 (configuration not stated)
inactive: [13] 91 % of control | [14] 101 % of control | dose: 12.5 mg/kg/injection, schedule: Q01DX009 (ip), vehicle: saline 102 % of control | dose: 25.0 mg/kg/injection, schedule: Q01DX009 (ip), vehicle: saline 113 % of control

CNc1nc(N)nc(Nc2ccc(I)cc2)c1N=O
inactive: [6] 99 % of control | [7] 90 % of control | [9] 94 % of control | [1] 96 % of control | [19] 94 % of control | [20] 94 % of control | [3] 123 % of control

COC(=O)/C=C/C=C(c1ccccc1)c1ccccc1
inactive: [9] 94 % of control | [19] 100 % of control | [20] 94 % of control | [21] 94 % of control

COc1cc(C(=O)CO)cc(OC)c1OC(C)=O
inactive: [18] 95 % of control | dose: 200.0 mg/kg/injection, schedule: Q04DX003 (ip), vehicle: saline with Tween-80 87 % of control

O=c1ssc(=Nc2ccccc2)n1-c1ccccc1
inactive: [5] 102 % of control | [6] 102 % of control | [7] 100 % of control | [1] 106 % of control | [2] 91 % of control

CC(=Nc1ccccc1)C1=C(O)C(CC(C)C)NC1=O (configuration not stated)
inactive: [9] 107 % of control | [19] 103 % of control | [20] 96 % of control | [21] 88 % of control

CC(=O)Nc1ccc(OC(=O)Nc2cccc3ccccc23)cc1
inactive: [10] 96 % of control | [11] 106 % of control | [12] 93 % of control

Reference: PubChem BioAssay AID192 (DTP/NCI, 2004)
